ChEMBL document CHEMBL1144745, “Alkyne-quinuclidine derivatives as potent and selective muscarinic antagonists for the treatment of COPD” (Bioorg Med Chem Lett, 2008)
The source made the active and inactive calls. The calls are words filed in the database; no cut-off is given here.

How the values were obtained:
Cavia porcellus = organism: Cavia porcellus; assay: (§1) Antagonist activity at muscarinic M2 receptor in carbachol-stimulated guinea pig left atrium; type: functional, tissue-based; conditions: Cardiac atrium
[1] = target: Muscarinic acetylcholine receptor M3 (Homo sapiens, UniProt P20309); assay: Displacement of [3H]N-methylscopolamine from human recombinant muscarinic M3 receptor expressed in CHO cells; type: cell-based
Sequence of Muscarinic acetylcholine receptor M3 (Homo sapiens, UniProt P20309) (P20309 whole entry): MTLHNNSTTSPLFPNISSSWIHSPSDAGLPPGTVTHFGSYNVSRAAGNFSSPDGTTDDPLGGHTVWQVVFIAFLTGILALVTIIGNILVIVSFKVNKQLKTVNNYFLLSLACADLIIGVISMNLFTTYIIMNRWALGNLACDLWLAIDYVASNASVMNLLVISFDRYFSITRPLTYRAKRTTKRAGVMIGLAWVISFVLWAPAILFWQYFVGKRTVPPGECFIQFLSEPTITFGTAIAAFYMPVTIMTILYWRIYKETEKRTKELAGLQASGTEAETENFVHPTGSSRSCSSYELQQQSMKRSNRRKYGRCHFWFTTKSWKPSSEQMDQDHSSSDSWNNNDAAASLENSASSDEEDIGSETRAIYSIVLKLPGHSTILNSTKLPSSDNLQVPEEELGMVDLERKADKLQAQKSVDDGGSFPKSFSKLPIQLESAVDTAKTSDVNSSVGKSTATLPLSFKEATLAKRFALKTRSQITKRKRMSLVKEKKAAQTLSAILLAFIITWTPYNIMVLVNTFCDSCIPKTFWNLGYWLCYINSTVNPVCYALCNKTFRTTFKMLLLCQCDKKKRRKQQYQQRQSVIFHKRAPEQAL

[2] = target: T1, Muscarinic acetylcholine receptor M2 (Homo sapiens, UniProt P08172); assay: Displacement of [3H]N-methylscopolamine from human recombinant muscarinic M2 receptor expressed in CHO cells; type: cell-based
T1 sequence (P08172 whole entry): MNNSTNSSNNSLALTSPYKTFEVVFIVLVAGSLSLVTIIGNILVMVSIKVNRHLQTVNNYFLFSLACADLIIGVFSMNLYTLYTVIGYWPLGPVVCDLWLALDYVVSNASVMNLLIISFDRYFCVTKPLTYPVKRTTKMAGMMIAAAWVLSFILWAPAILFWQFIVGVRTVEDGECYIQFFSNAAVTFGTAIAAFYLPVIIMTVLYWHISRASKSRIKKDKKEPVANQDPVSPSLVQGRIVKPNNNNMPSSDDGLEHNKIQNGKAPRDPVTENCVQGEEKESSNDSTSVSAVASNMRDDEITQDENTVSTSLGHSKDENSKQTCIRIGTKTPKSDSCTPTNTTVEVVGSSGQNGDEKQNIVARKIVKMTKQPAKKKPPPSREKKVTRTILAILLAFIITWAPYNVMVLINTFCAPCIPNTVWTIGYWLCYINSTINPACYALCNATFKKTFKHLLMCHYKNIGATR

[3] = target: Muscarinic acetylcholine receptor M3 (Cavia porcellus, UniProt Q8VH26); assay: Antagonist activity at muscarinic M3 receptor in carbachol-stimulated guinea pig trachea; type: functional; conditions: read-out: pA2 (converted)
Sequence of Muscarinic acetylcholine receptor M3 (Cavia porcellus, UniProt Q8VH26) (Q8VH26 whole entry): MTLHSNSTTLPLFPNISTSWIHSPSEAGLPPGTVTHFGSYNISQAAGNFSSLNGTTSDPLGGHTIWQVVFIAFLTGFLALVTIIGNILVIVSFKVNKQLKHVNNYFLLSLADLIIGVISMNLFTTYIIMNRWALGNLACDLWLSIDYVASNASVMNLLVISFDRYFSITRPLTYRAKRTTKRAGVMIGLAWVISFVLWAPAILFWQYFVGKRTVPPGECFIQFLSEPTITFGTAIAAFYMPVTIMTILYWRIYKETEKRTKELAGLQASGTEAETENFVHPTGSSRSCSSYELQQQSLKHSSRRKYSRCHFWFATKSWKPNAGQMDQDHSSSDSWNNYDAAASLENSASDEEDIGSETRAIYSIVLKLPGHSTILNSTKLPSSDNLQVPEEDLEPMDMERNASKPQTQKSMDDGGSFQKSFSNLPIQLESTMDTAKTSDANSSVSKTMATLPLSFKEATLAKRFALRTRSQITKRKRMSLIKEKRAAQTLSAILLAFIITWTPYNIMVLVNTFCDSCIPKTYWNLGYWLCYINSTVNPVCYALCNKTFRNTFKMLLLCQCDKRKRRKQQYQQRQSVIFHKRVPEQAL

[4] = as §1; type: functional, tissue-based; conditions: Cavia porcellus, Cardiac atrium; read-out: pA2 (converted)
[5] = target: Muscarinic acetylcholine receptor M3 (Cavia porcellus) (UniProt Q8VH26); assay: Reversible inhibition of muscarinic M3 receptor in electrically-stimulated guinea pig trachea assessed as recovery of maximal effect at >280 min; type: tissue-based; parameters: scale not given: the % may be the effect or the level left
Sequence of Muscarinic acetylcholine receptor M3 (Cavia porcellus) (Q8VH26 1-587): as the sequence (Q8VH26 whole entry) above

| SMILES | Activity (Cavia porcellus) | Ki [1] | Ki [2] | Kb [3] | Kb [4] | Activity [5] |
| --- | --- | --- | --- | --- | --- | --- |
| C[N+]1(C)[C@@H]2C[C@@H](OC(=O)C(O)(c3cccs3)c3cccs3)C[C@H]1[C@@H]1O[C@@H]12 | Active |  |  |  |  |  |
| COC1(C#CC(C#N)(c2ccccc2)c2ccccc2)CN2CCC1CC2 (stereo not given) | Active | 2.51 nM | 6.31 nM |  |  |  |
| CO[C@]1(C#CC(O)(c2ccccc2)c2ccccc2)CN2CCC1CC2 | Active |  |  |  |  |  |
| CO[C@]1(C#C[C@](O)(c2ccccc2)C2CCCCC2)CN2CCC1CC2 | Active |  |  |  |  |  |
| CO[C@]1(C#C[C@@](O)(c2ccccc2)C2CCCCCC2)CN2CCC1CC2 | Active | 2 nM | 20 nM |  |  |  |
| CO[C@]1(C#C[C@@](O)(c2ccccc2)C2CCCCCCC2)CN2CCC1CC2 | Active | 2.51 nM | 31.6 nM |  |  |  |
| CO[C@]1(C#C[C@](O)(c2ccccc2)C2CCCCCCC2)CN2CCC1CC2 |  | 0.316 nM | 3.16 nM | 6.31 nM | 31.6 nM | 20% |
| CO[C@]1(C#C[C@@](O)(c2ccccc2)C2CCCCC2)CN2CCC1CC2 | Active |  |  |  |  |  |
| CC(C)[N+]1(C)C2CCC1CC(OC(=O)[C@H](CO)c1ccccc1)C2 (stereo not given in full) | Active |  |  |  |  |  |
| COC(C#C[C@@]1(OC)CN2CCC1CC2)(c1ccccc1)c1ccccc1 | Active | 10 nM | 158 nM |  |  |  |
| CO[C@]1(C#C[C@](O)(c2ccccc2)C2CCCCCC2)CN2CCC1CC2 |  | 0.316 nM | 2.51 nM | 6.31 nM | 5.01 nM | 20% |
| COC1(C#CC(C)(c2ccccc2)c2ccccc2)CN2CCC1CC2 (stereo not given) | Active | 15.8 nM | 39.8 nM |  |  |  |
